Earlier results as cited in PubChem BioAssay AID1259409 (Chemical Carcinogenesis Research Information System (CCRIS), 2018).

Test system: rodent chemically induced tumor inhibition, incidence and multiplicity
Assay: CCRIS tumor inhibitor studies
Details: Carcinogen: N-METHYL-N-NITROSOUREA, 684-93-5, Route [Inhibitor]: ORAL, Species: RAT, Strain/Sex: SPRAGUE-DAWLEY/FEMALE, Target Tissue: Type of Lesion: MAMMARY GLAND: CARCINOMA, Promoter: NONE USED

## CC(C(=O)O)c1ccc(-c2ccccc2)c(F)c1 (stereo not drawn)
Dose [Inhibitor]: 31.25 MG/KG DIET DAILY STARTING 1 WK AFTER CARCINOGEN ADMINISTRATION AND CONTINUING THROUGH THE END OF THE STUDY (STUDY, Dose [Carcinogen]: 25 MG/KG BW ONCE
  tumour outcome (control, treated, inhibition, significance): 91%, 60%, 34%, p<0.05
Dose [Inhibitor]: 31.25 MG/KG DIET DAILY STARTING 1 WK AFTER CARCINOGEN ADMINISTRATION AND CONTINUING THROUGH THE END OF THE STUDY (STUDY, Dose [Carcinogen]: 50 MG/KG BW ONCE
  tumour outcome (control, treated, inhibition, significance): 100%, 100%, 0%, not significant
Dose [Inhibitor]: 31.25 MG/KG IN DIET STARTING 1 WK AFTER CARCINOGEN DOSE AND CONTINUING THROUGH THE END OF THE STUDY (STUDY DURATION: 180, Dose [Carcinogen]: 25 MG/KG BW ONCE
  tumour outcome (control, treated, inhibition, significance): 91%, 60%, 34%, p<0.05
Dose [Inhibitor]: 31.25 MG/KG IN DIET STARTING 1 WK AFTER CARCINOGEN DOSE AND CONTINUING THROUGH THE END OF THE STUDY (STUDY DURATION: 180, Dose [Carcinogen]: 50 MG/KG BW ONCE
  tumour outcome (control, treated, inhibition, significance): 100%, 100%, 0%, not significant
Dose [Inhibitor]: 62.5 MG/KG DIET DAILY STARTING 1 WK AFTER CARCINOGEN ADMINISTRATION AND CONTINUING THROUGH THE END OF THE STUDY (STUDY D, Dose [Carcinogen]: 25 MG/KG BW ONCE
  tumour outcome (control, treated, inhibition, significance): 91%, 68%, 25%, p<0.1
Dose [Inhibitor]: 62.5 MG/KG DIET DAILY STARTING 1 WK AFTER CARCINOGEN ADMINISTRATION AND CONTINUING THROUGH THE END OF THE STUDY (STUDY D, Dose [Carcinogen]: 50 MG/KG BW ONCE
  tumour outcome (control, treated, inhibition, significance): 100%, 100%), 0%, not significant
Dose [Inhibitor]: 62.5 MG/KG IN DIET STARTING 1 WK AFTER CARCINOGEN DOSE AND CONTINUING THROUGH THE END OF THE STUDY (STUDY DURATION: 180, Dose [Carcinogen]: 25 MG/KG BW ONCE
  tumour outcome (control, treated, inhibition, significance): 91%, 68%, 25%, p<0.1
Dose [Inhibitor]: 62.5 MG/KG IN DIET STARTING 1 WK AFTER CARCINOGEN DOSE AND CONTINUING THROUGH THE END OF THE STUDY (STUDY DURATION: 180, Dose [Carcinogen]: 50 MG/KG BW ONCE
  tumour outcome (control, treated, inhibition, significance): 100%, 100%, 0%, not significant
